Data: PMC7581941, “Schedule-Dependent Synergy Between the Histone Deacetylase Inhibitor Belinostat and the Dihydrofolate Reductase Inhibitor Pralatrexate in T-and B-cell Lymphoma Cells in vitro” (Frontiers in Cell and Developmental Biology, 2020)
“And” between values parts separate entries of the source, which are not always exact repeats. Equal entries are not always repeated. Where two headings read alike, the source gives them in different places.

Columns and labels:
PCFT = target: T1, PCFT (Homo sapiens, UniProt Q96NT5); test: PCFT competition assay: inhibition of [3H]-l-LV influx in CHO-cells lacking RFC and transfected with PCFT; type: cell-based
T1 construct: expressed in transfected cells; host or cells: CHO cells lacking RFC
T1 sequence (Q96NT5 1-459): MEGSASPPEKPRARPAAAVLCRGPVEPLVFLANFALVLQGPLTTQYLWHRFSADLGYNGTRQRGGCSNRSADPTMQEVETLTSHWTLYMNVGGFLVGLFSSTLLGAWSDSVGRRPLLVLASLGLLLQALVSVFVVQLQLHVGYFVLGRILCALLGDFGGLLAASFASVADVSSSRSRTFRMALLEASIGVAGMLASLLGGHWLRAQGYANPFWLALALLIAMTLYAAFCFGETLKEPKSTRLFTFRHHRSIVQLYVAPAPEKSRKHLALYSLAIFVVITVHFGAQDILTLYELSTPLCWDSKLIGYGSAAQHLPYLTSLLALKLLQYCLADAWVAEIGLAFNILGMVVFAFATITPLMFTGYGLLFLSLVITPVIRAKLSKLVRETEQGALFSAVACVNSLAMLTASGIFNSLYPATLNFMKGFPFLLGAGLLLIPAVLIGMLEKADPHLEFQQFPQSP
Protocol: The affinity for PCFT of PLX was assessed in competition with 2.5 μM ^3H-l-LV at pH 5.5 in CHO-cells lacking RFC and transfected with PCFT. […] […] Also for PCFT relative affinities were expressed as the concentration of unlabeled drug necessary to inhibit [^3H]-LV influx.

RFC = target: T2, RFC (Homo sapiens, UniProt P41440); test: RFC competition assay: inhibition of [3H]-l-LV uptake in CCRF-CEM/7A cells (RFC+++); type: cell-based
T2 construct: CEM-7A cells overexpress the RFC 30-fold over wild-type CCRF-CEM cells; endogenous in cells; host or cells: CCRF-CEM/7A (CEM-7A) cells
T2 sequence (P41440 1-591): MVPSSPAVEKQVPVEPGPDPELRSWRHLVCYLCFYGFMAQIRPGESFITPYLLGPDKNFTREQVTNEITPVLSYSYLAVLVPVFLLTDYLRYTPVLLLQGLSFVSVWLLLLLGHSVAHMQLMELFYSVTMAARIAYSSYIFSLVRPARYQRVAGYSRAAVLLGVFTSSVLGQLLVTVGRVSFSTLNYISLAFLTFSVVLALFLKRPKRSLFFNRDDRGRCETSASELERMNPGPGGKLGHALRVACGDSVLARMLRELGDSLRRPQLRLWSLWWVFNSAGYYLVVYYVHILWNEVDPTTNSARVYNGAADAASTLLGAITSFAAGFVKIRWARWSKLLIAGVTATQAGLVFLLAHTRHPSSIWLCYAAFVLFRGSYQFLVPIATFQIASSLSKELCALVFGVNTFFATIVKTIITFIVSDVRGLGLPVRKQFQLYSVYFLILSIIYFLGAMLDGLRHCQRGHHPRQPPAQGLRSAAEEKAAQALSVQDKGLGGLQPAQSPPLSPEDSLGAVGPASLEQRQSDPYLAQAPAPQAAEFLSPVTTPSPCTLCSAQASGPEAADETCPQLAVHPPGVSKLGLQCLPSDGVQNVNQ
Protocol: For FRα and FRβ, we used an intact cell binding assay for competitive binding with KB cells and CHO-FRβ cells, respectively. […] For RFC we used a competition assay with 5 μM [^3H]-l-LV in CCRF-CEM/7A cells (RFC+++) for 2 min at 37°C.
Transport was determined by evaluation of the uptake of 5 μM [^3H]-l-LV for 2 min in CCRF-CEM-7A cells, which overexpress RFC. […] Values are from one representative experiment in triplicate; performed three times. Error bars represent SEM, when not visible, they are within the size of the marker.

HT cells [1] = test: Cell growth inhibition (cell counting) and median-drug effect analysis, HT; type: cell-based; conditions: for IC50: HT
CCRF-CEM = test: Cell growth inhibition (MTT), CCRF-CEM; type: cell-based, human
Protocol: (§1) Cells were treated immediately with a drug dilution series in cell culture medium (75 μL/well). After an incubation period of approximately 72 h, growth in the 96-wells plates was assessed by adding 15 μL MTT solution (stock solution 5 mg/ml in PBS, final concentration 0.5 mg/ml in culture medium) to each well. After incubation for 3 h in the 5% CO2 incubator with 100% humidity at 37°C, 150 μL acidified 2-propanol was added to the plates to dissolve the formazan crystals. The yellow-colored MTT stock solution is taken up and reduced to a purple formazan in living cells, which directly correlates to the amount of viable cells. As final step, the plates were measured at 540 (or 492) nm by the SPECTRAfluor spectrophotometer.

Karpas-299 = test: Cell growth inhibition (MTT) and median-drug effect analysis, Karpas-299; type: cell-based; conditions: Homo sapiens, read-out: IC50 (50% growth inhibition); Karpas-299, 72 h exposure
Protocol: as §1
(§2) Drug interaction in combination experiments was evaluated using the median-drug effect analysis using CalcuSyn software ([Bijnsdorp et al., 2011]). In order to evaluate combination indexes [CI] from different experiments, the CI values at Fraction Affected (FA) values >0.5 (preferably around 0.5, 0.75, and 0.9) were averaged for each specific experiment. The means of the separate experiments were subsequently averaged so that a mean ± Standard Error of the Mean (SEM) was calculated from three or more separate experiments. […]

cell proliferation = test system: cell proliferation; design: method as in Tonner et al., 2006; conditions: ref Tonner et al., 2006; cited from earlier work
SUDHL-5 cells = test: Cell growth inhibition (MTT) and median-drug effect analysis, SUDHL-5; type: cell-based
Protocol: as §1
Drug interaction in combination experiments was evaluated using the median-drug effect analysis using CalcuSyn software ([Bijnsdorp et al., 2011]). In order to evaluate combination indexes [CI] from different experiments, the CI values at Fraction Affected (FA) values >0.5 (preferably around 0.5, 0.75, and 0.9) were averaged for each specific experiment. The means of the separate experiments were subsequently averaged so that a mean ± Standard Error of the Mean (SEM) was calculated from three or more separate experiments. […] Drug combinations were designed based on the standard CalcuSyn approach in which a series of drug concentrations were combined in a fixed molar ratio, based on the IC50 of each drug. A variation of this approach was a sequential scheduling in which cells were exposed for 72 h to BLS, while in the combination PLX was added after 24 h and cells were exposed from 24 to 72 h. In the non-fixed ratio approach one drug was used at the IC25 (concentration that results in 25% growth inhibition) and the other drug was added in a concentration range.

FRα = target: T3, FRα (Homo sapiens, UniProt P15328); test: Intact cell binding assay, displacement of radio-active folic acid from KB cells; conditions: inverse ratio of compound to displace 50% of radio-active folic acid, folic acid set at 1
T3 construct: endogenous in cells; host or cells: KB cells
T3 sequence (P15328 25-257): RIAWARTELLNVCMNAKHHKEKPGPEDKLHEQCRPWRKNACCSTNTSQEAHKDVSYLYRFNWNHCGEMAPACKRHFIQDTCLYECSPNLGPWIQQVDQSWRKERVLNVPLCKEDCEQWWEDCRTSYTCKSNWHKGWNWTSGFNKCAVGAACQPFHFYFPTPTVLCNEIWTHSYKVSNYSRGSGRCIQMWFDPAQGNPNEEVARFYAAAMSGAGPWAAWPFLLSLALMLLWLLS
Protocol: (§3) In order to determine to which extent PLX was a substrate for either the folate receptors, RFC or PCFT we used competition experiments in cell lines overexpressing either transporter ([Westerhof et al., 1995a], [b]; [Jansen et al., 1997]; [Ifergan et al., 2008]; [Lasry et al., 2008]; [van der Heijden et al., 2009]). For FRα and FRβ, we used an intact cell binding assay for competitive binding with KB cells and CHO-FRβ cells, respectively. […] For RFC we used a competition assay with 5 μM [^3H]-l-LV in CCRF-CEM/7A cells (RFC+++) for 2 min at 37°C. CEM-7A cells overexpress the RFC 30-fold over wild-type CCRF-CEM cells ([Jansen et al., 1990], [1997]).

SUDHL-4 cells [2] = test: Cell growth inhibition (cell counting) and median-drug effect analysis, SUDHL-4; type: cell-based; conditions: Homo sapiens, SU-DHL-4, read-out: IC50 (50% growth inhibition); SUDHL 4, 72 h exposure
HT cells [3] = test: FACS propidium iodide staining: cell cycle distribution and cell death, HT; type: cell-based; conditions: drugs at their IC50, untreated 3.5%
Protocol: (§4) Propidium iodide staining (DNA staining) was used to determine cell cycle distribution and the extent of cell death. Cells (120,000 per well in a 24-wells plate) were exposed to PLX or BLS or the combination for 24, 48, or 72 h. Cells were harvested, suspended in 1.0 ml phosphate buffered saline/1% Bovine serum albumin and fixed with 70% ethanol. After centrifugation the pellet was resuspended in hypotonic propidium iodide (0.1 mg/ml), Triton-X-100 (0.1%), sodium citrate (1 mg/ml) and RNAse A (0.5 mg/ml) (final concentrations in saline) and stored in dark on ice for 30 min ([De Wilt et al., 2012]). DNA content of the cells to determine cell cycle effects and cell kill was analyzed by a FACScalibur (Becton Dickinson Immunocytometry Systems, San Jose, CA, United States) with an acquisition of 10,000 events as described previously ([De Wilt et al., 2012]).

SUDHL-4 cells [4] = test: FACS propidium iodide staining: cell death, SUDHL-4; type: cell-based; conditions: drugs at their IC50, untreated 5.0%
Protocol: as §4

Jeko-1 = test: Cell growth inhibition (MTT) and median-drug effect analysis, Jeko-1; type: cell-based; conditions: Homo sapiens, read-out: IC50 (50% growth inhibition); Jeko-1, 72 h exposure
Protocol: Cells were plated in 96-wells flat bottom plates, at 3,000 or 6,000 cells per well in culture medium (75 μL/well) or in 24-wells plates (60,000 cells/well) for the counting assays for which a Coulter Counter was used. Cells were treated immediately with a drug dilution series in cell culture medium (75 μL/well). […] After incubation for 3 h in the 5% CO2 incubator with 100% humidity at 37°C, 150 μL acidified 2-propanol was added to the plates to dissolve the formazan crystals. The yellow-colored MTT stock solution is taken up and reduced to a purple formazan in living cells, which directly correlates to the amount of viable cells. As final step, the plates were measured at 540 (or 492) nm by the SPECTRAfluor spectrophotometer. […] Drug interaction in combination experiments was evaluated using the median-drug effect analysis using CalcuSyn software ([Bijnsdorp et al., 2011]). […] The means of the separate experiments were subsequently averaged so that a mean ± Standard Error of the Mean (SEM) was calculated from three or more separate experiments. […] Drug combinations were designed based on the standard CalcuSyn approach in which a series of drug concentrations were combined in a fixed molar ratio, based on the IC50 of each drug. […]

Hut-29 = test: Cell growth inhibition (MTT) and median-drug effect analysis, Hut-29; type: cell-based; conditions: read-out: IC50 (50% growth inhibition); Hut-29, 72 h exposure
Protocol: as §1, §2

FRβ = target: T4, FRβ (Homo sapiens, UniProt P14207); test: Intact cell binding assay, displacement of radio-active folic acid from CHO-FRβ cells; conditions: folic acid set at 1
T4 construct: expressed in transfected cells; host or cells: CHO-FRβ cells
T4 sequence (P14207 17-255, species assumed): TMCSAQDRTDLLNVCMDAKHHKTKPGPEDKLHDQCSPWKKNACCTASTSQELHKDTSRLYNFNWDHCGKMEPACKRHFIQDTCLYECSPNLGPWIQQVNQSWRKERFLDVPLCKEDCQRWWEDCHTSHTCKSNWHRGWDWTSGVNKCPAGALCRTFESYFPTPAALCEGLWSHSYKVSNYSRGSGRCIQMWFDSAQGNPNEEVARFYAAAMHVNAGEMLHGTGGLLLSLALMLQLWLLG
Protocol: as §3

lymphoma cell lines = test: Cell growth inhibition and median-drug effect analysis, panel of lymphoma cell lines; type: cell-based; conditions: 72 hr exposure, panel of cell lines; read-out: IC50, range over the cell lines
Protocol: Cells were plated in 96-wells flat bottom plates, at 3,000 or 6,000 cells per well in culture medium (75 μL/well) or in 24-wells plates (60,000 cells/well) for the counting assays for which a Coulter Counter was used. Cells were treated immediately with a drug dilution series in cell culture medium (75 μL/well). […] After incubation for 3 h in the 5% CO2 incubator with 100% humidity at 37°C, 150 μL acidified 2-propanol was added to the plates to dissolve the formazan crystals. The yellow-colored MTT stock solution is taken up and reduced to a purple formazan in living cells, which directly correlates to the amount of viable cells. As final step, the plates were measured at 540 (or 492) nm by the SPECTRAfluor spectrophotometer. […] Drug interaction in combination experiments was evaluated using the median-drug effect analysis using CalcuSyn software ([Bijnsdorp et al., 2011]). […] The means of the separate experiments were subsequently averaged so that a mean ± Standard Error of the Mean (SEM) was calculated from three or more separate experiments. […] Drug combinations were designed based on the standard CalcuSyn approach in which a series of drug concentrations were combined in a fixed molar ratio, based on the IC50 of each drug. A variation of this approach was a sequential scheduling in which cells were exposed for 72 h to BLS, while in the combination PLX was added after 24 h and cells were exposed from 24 to 72 h.

C#CCC(Cc1cnc2nc(N)nc(N)c2n1)c1ccc(C(=O)N[C@@H](CCC(=O)O)C(=O)O)cc1 (stereo partly shown) [PLX, Pralatrexate]
IC50 (PCFT; 2.5 μM [3H]-l-LV, pH 5.5, 3 min, 37°C, read-out: PCFT: concentration of unlabeled drug necessary to inhibit [3H]-LV influx): 15000 nM and 14800 nM
substrate for PCFT at physiological pH (PCFT; pH 7.4): very poor substrate
RFC substrate affinity, fold better compared to methotrexate (RFC): 6 fold
RFC substrate affinity, fold better than levoleucovorin (l-LV) (RFC): 2 fold
IC50 (RFC; 5 μM [3H]-l-LV, 2 min, 37°C, CCRF-CEM/7A cells, read-out: RFC: concentration of unlabeled drug necessary to inhibit [3H]-l-LV uptake by 50%): 2800 ± 100 nM
IC25 (concentration that results in 25% growth inhibition) (HT cells [1]; HT cells, 72 h): ~5 nM
IC50 (HT cells [1]; Homo sapiens, 72 h, read-out: IC50 (50% growth inhibition), HT, 72 h exposure): ~10 nM
IC50 (HT cells [1]; read-out: IC50 (50% growth inhibition), 72 h exposure): 7.4 ± 0.5 nM
reversal of cytotoxicity by l-LV (CCRF-CEM; 5 μM l-LV, CEM cells): 2965 fold
IC50 (CCRF-CEM; Homo sapiens, read-out: IC50 (50% growth inhibition), CCRF-CEM, 72 h exposure): 2.6 ± 0.4 nM
IC50 (Karpas-299): 24.7 ± 5.3 nM
potency in suppressing cell proliferation relative to methotrexate (cell proliferation): one log more potent
IC50 (SUDHL-5 cells; Homo sapiens, SU-DHL-5, read-out: IC50 (50% growth inhibition), SUDHL 5, 72 h exposure): 5.5 ± 0.9 nM
IC25 (concentration that results in 25% growth inhibition) (SUDHL-5 cells; SUDHL-5 cells, 72 h): ~4 nM
FR-α relative affinity (FRα): 0.0035 and 0.0035 ± 0.0005
IC50 (SUDHL-4 cells [2]): 5.6 ± 0.4 nM
accumulation of cells in the sub-G1 phase (cell death) (HT cells [3]): 13%
accumulation of cells in the sub-G1 phase (cell death) (SUDHL-4 cells [4]): 22.1%
IC50 (Jeko-1): 18.7 ± 4.2 nM
IC50 (Hut-29): 2.8 ± 0.5 nM
FRβ relative affinity (FRβ): < 0.001
IC50 (lymphoma cell lines): 2.8 to 20 nM
